row,SMILES,melting point
1,CCCC(CCC)c1ccc(OCc2ccc(-c3csc(CN(CCN)C(=O)c4ccc(C(=O)O)cn4)n3)cc2)cc1.Cl,227 to 229 °C
2,CCCC(CCC)c1ccc(OCc2ccc(-c3csc(COc4cncc(C(=O)O)c4)c3)cc2)cc1.Cl,170 to 173 °C
3,CCC(CC)c1ccc(N(Cc2ccc(-c3csc(CSc4ccc(C(=O)O)cc4)n3)cc2)C(C)C)cc1 [Example 1-13],132.5 °C
4,CCCC(CCC)c1ccc(N(C)Cc2ccc(-c3csc(CSc4ccc(C(=O)O)cc4)n3)cc2)cc1 [Example 1-14],122 to 124 °C
5,CCCC(CCC)c1ccc(N(C)Cc2ccc(-c3csc(CN(C)S(=O)(=O)CCCC(=O)[O-])n3)cc2)cc1.[Na+] [Example 1-16],217 to 220 °C
6,CN(Cc1ccc(C(=O)O)cc1)c1nc(-c2ccc(CNc3ccc(C4CCCCC4)cc3)cc2)cs1 [Example 1-17],206 to 210 °C
7,CN(Cc1ccc(-c2csc(N(C)Cc3ccc(C(=O)O)cc3)n2)cc1)c1ccc(C2CCCCC2)cc1 [Example 1-18],190 to 192 °C
8,CCC(CC)c1ccc(N(Cc2ccc(-c3csc(N(C)Cc4ccc(C(=O)O)cc4)n3)cc2)C(C)C)cc1 [Example 1-20],150 to 153 °C
9,CCC(CC)c1ccc(N(Cc2ccc(-c3csc(CN(C)[C@@H](Cc4ccccc4)C(=O)O)n3)cc2)C(C)C)cc1 [Example 1-22],80 °C
10,CC(C)CN(Cc1ccc(-c2csc(CN(CC(=O)O)Cc3ccccc3)n2)cc1)c1ccc(C(C)(C)C)cc1 [Example 1-23],133 °C
11,CC(C)CN(Cc1ccc(-c2csc(CN(CC(=O)O)Cc3ccccc3)n2)cc1)c1ccc(Cl)cc1 [Example 1-24],152 °C
12,CC(C)CN(Cc1ccc(-c2csc(CN(CC(=O)O)C(=O)Nc3ccccc3)n2)cc1)c1ccc(C(C)(C)C)cc1 [Example 1-27],119 °C
13,CC(C)CN(Cc1ccc(-c2csc(CN(CC(=O)O)C(=O)c3ccccc3)n2)cc1)c1ccc(C(C)(C)C)cc1 [Example 1-28],147 °C
14,CC(C)CN(Cc1ccc(-c2csc(CN(CC(=O)O)C(=O)c3ccccn3)n2)cc1)c1ccc(C(C)(C)C)cc1 [Example 1-29],160 °C
15,CC(C)CN(Cc1ccc(-c2csc(CN(CC(=O)O)C(=O)c3cccnc3)n2)cc1)c1ccc(C(C)(C)C)cc1 [Example 1-30],193 °C
16,CC(C)CN(Cc1ccc(-c2csc(CN(CC(=O)O)S(=O)(=O)c3ccccc3)n2)cc1)c1ccc(C(C)(C)C)cc1 [Example 1-31],168.5 °C
17,CCC(CC)c1ccc(N(Cc2ccc(-c3csc(CN4Cc5ccccc5CC4C(=O)O)n3)cc2)C(C)C)cc1 (stereo not shown) [Example 1-32],127.5 °C
18,CCC(CC)N(Cc1ccc(-c2csc(CN3Cc4ccccc4C[C@H]3C(=O)O)n2)cc1)c1ccc(C(C)C)cc1 [Example 1-35],110 to 113 °C
19,CCC(C)(C)c1ccc(OCc2ccc(-c3csc(N(C)Cc4ccc(C(=O)O)cc4)n3)cc2)cc1 [Example 1-38],155 to 157 °C
20,CCCC(CCC)c1ccc(OCc2ccc(-c3csc(CN(C)[C@@H](Cc4ccccc4)C(=O)O)n3)cc2)cc1 [Example 1-42],114 to 118 °C
21,Cc1ccc(OCc2ccc(-c3csc(CN(CC(=O)O)Cc4ccccc4)n3)cc2)c(C(C)(C)C)c1 [Example 1-43],146 °C

row,SMILES,melting point
1,CCCC(CCC)c1ccc(OCc2ccc(-c3csc(CN4Cc5ccccc5C[C@H]4C(=O)O)n3)cc2)cc1 [Example 1-46],77 to 82 °C
2,CCCC(CCC)c1ccc(OCc2ccc(-c3csc(CN4Cc5ccccc5C[C@@H]4C(=O)O)n3)cc2)cc1 [Example 1-47],77 to 82 °C
3,CCCC(CCC)c1ccc(OCc2ccc(-c3csc(COc4ccc(C(=O)O)cc4)n3)cc2)cc1 [Example 1-49],199 to 202 °C
4,CCCC(CCC)c1ccc(OCc2ccc(-c3csc(CN(C)S(=O)(=O)CCCC(=O)O)n3)cc2)cc1 [Example 1-51],103.3 to 106.3 °C
5,CN(c1ccc(C(=O)O)cc1)c1nc(-c2ccc(C(=O)Nc3ccc(C4CCCCC4)cc3)cc2)cs1 [Example 1-52],250 °C (dec.)
6,CCCC(CCC)c1ccc(NC(=O)c2ccc(-c3csc(CN(CC(=O)O)Cc4ccccc4)n3)cc2)cc1 [Example 1-54],201 to 202 °C
7,CCCC(CCC)c1ccc(CNC(=O)c2ccc(-c3csc(CN(CC(=O)O)Cc4ccccc4)n3)cc2)cc1 [Example 1-55],141 to 143 °C
8,CCCC(CCC)c1ccc(CN(C)C(=O)c2ccc(-c3csc(CN(CC(=O)O)Cc4ccccc4)n3)cc2)cc1 [Example 1-56],65 to 71 °C
9,CCCC(CCC)c1ccc(CN(CC)C(=O)c2ccc(-c3csc(CN(CC(=O)O)Cc4ccccc4)n3)cc2)cc1 [Example 1-57],59 to 65 °C
10,CC(C)CN(Cc1ccc(-c2csc(CN(CC(=O)O)C(=O)N3CCOCC3)n2)cc1)c1ccc(C(C)(C)C)cc1 [Example 1-59],138 °C
11,CCCC(CCC)c1ccc(OCc2ccc(-c3csc(COc4ncccc4C(=O)O)n3)cc2)cc1 [Example 1-76],154.5 °C
12,CCCC(CCC)c1ccc(OCc2ccc(-c3csc(COc4cccnc4C(=O)O)n3)cc2)cc1 [Example 1-82],138.5 °C (dec.)
13,CCCC(CCC)c1ccc(OCc2ccc(-c3csc(CN(CC(=O)O)CC(=O)Nc4ccccc4)n3)cc2)cc1 [Example 1-95],149.5 °C
14,CCCC(CCC)c1ccc(OCc2ccc(-c3csc(CN(CC(=O)O)CC(=O)Nc4cccnc4)n3)cc2)cc1 [Example 1-96],162.5 °C
15,CCCC(CCC)c1ccc(OCc2ccc(-c3csc(CN(CC(=O)O)CC(=O)Nc4ccc(N(C)C)cc4)n3)cc2)cc1 [Example 1-97],192.5 °C
16,CCCC(CCC)c1ccc(OCc2ccc(-c3csc(CN(CC(=O)O)CC(=O)Nc4ccc(OC)cc4)n3)cc2)cc1 [Example 1-98],176.5 °C
17,CCCC(CCC)c1ccc(OCc2ccc(-c3csc(CN(CC(=O)O)CC(=O)N(c4ccccc4)C(C)C)n3)cc2)cc1 [Example 1-99],115.5 °C
18,CCCC(CCC)c1ccc(OCc2ccc(-c3csc(CN(CC(=O)O)CC(=O)Nc4ccccn4)n3)cc2)cc1 [Example 1-100],133.5 °C
19,CCCC(CCC)c1ccc(N(Cc2ccc(-c3csc(CN(CC(=O)O)S(=O)(=O)N(C)c4ccccc4)n3)cc2)C(C)C)cc1 [Example 1-116],146 to 148 °C
20,CCC(CC)c1ccc(N(Cc2ccc(-c3csc(CN(C)c4ccc(OCC(=O)O)c(C(=O)O)c4)n3)cc2)C(C)C)cc1 [Example 1-124],124 °C
21,CCCC(CCC)c1ccc(OCc2ccc(-c3csc(CN(C)c4ccc(OCC(=O)O)c(C(=O)O)c4)n3)cc2)cc1 [Example 1-125],122 °C

# The remaining lines, values ahead:
row,melting point,SMILES
1,219 °C,CCC(CC)c1ccc(N(Cc2ccc(-c3csc(COc4ccc(C(=O)O)cc4)n3)cc2)C(C)C)cc1 [Example 1-2]
2,177 to 181 °C,CCC(CC)c1ccc(N(Cc2ccc(-c3csc(COc4ccc(C(=O)O)cn4)n3)cc2)C(C)C)cc1 [Example 1-3]
3,135 to 138 °C,CCCC(CCC)c1ccc(N(C)Cc2ccc(-c3csc(COc4cncc(C(=O)O)c4)n3)cc2)cc1 [Example 1-4]
4,161 to 163 °C,CCCC(CCC)c1ccc(N(C)Cc2ccc(-c3csc(COc4ccc(C(=O)O)cc4)n3)cc2)cc1 [Example 1-5]
5,141 to 143 °C,CCCC(CCC)N(Cc1ccc(-c2csc(COc3ccc(C(=O)O)cn3)n2)cc1)c1ccc(C(C)C)cc1 [Example 1-6]
6,184 to 185 °C,CCCC(CCC)N(Cc1ccc(-c2csc(COc3cncc(C(=O)O)c3)n2)cc1)c1ccc(C(C)C)cc1 [Example 1-7]
7,196 to 197 °C,CC(C)CN(Cc1ccc(-c2csc(COc3cncc(C(=O)O)c3)n2)cc1)c1ccc(C(C)C)cc1 [Example 1-8]
8,166 to 168 °C,CCCC(CCC)N(Cc1ccc(-c2csc(COc3ccc(C(=O)O)cc3)n2)cc1)c1ccc(C(C)C)cc1 [Example 1-9]
9,127 to 129 °C,CCCC(CCC)N(Cc1ccc(-c2csc(COc3cccc(C(=O)O)c3)n2)cc1)c1ccc(C(C)C)cc1 [Example 1-10]
10,155 to 157 °C,CCC(CC)N(Cc1ccc(-c2csc(COc3ccc(C(=O)O)cn3)n2)cc1)c1ccc(C(C)C)cc1 [Example 1-11]
11,110 to 114 °C,CCC(CC)N(Cc1ccc(-c2csc(COc3cncc(C(=O)O)c3)n2)cc1)c1ccc(C(C)C)cc1 [Example 1-12]
12,131 °C,CCC(CC)c1ccc(N(Cc2ccc(-c3csc(COc4cc(OC)cc(C(=O)O)c4)n3)cc2)C(C)C)cc1 [Example 1-63]
13,185 °C (dec.),CCCC(CCC)c1ccc(N(Cc2ccc(-c3csc(COc4cncc(C(=O)O)c4)n3)cc2)C(C)C)cc1.[Na+] [Example 1-68]
14,181 °C,CCC(CC)CN(Cc1ccc(-c2csc(COc3cncc(C(=O)O)c3)n2)cc1)c1ccc(C(C)C)cc1 [Example 1-74]
15,111 to 113 °C,CCC(CC)c1ccc(N(Cc2ccc(-c3csc(COc4cncc(C(=O)OC)c4)n3)cc2)C(C)C)cc1 [Example 1-89]
16,179 to 181 °C,CCC(CC)c1ccc(N(Cc2ccc(-c3csc(COc4cc(C(=O)O)ccc4N)n3)cc2)C(C)C)cc1 [Example 1-90]
17,165 to 167 °C,CCC(CC)c1ccc(N(Cc2ccc(-c3csc(COc4cccc(C(=O)O)c4)n3)cc2)C(C)C)cc1 [Example 1-91]
18,159 to 160 °C,CCC(CC)c1ccc(N(Cc2ccc(-c3csc(CNc4cccc(C(=O)O)c4)n3)cc2)C(C)C)cc1 [Example 1-92]
19,198 to 200 °C,CCC(CC)c1ccc(N(Cc2ccc(-c3csc(COc4cc(C(=O)O)ccc4[N+](=O)[O-])n3)cc2)C(C)C)cc1 [Example 1-93]
20,129 to 131 °C,CCCC(CCC)c1ccc(N(Cc2ccc(-c3csc(COc4cc(C(=O)O)ccc4NC(C)=O)n3)cc2)C(C)C)cc1 [Example 1-108]
21,166 to 168 °C,CCCC(CCC)c1ccc(N(Cc2ccc(-c3csc(COc4cc(C(=O)O)ccc4NC(=O)C(C)C)n3)cc2)C(C)C)cc1 [Example 1-113]
22,210 to 212 °C,CCCC(CCC)c1ccc(N(Cc2ccc(-c3csc(COc4cc(C(=O)O)ccc4NC(=O)CNC)n3)cc2)C(C)C)cc1 [Example 1-126]
